Data published in patent US8618289B2 (Ambit Biosciences Corporation, priority 2008, dated 2013).
pEC50, pIC50, pKd: −log10 of the molar value. Where two headings read alike, the source gives them in different places.

Tests used:
[1] = tested on: 290 distinct kinases tested excluding mutant variants (321 in the larger panel)
Procedure: Competition binding assays used herein were developed, validated and performed as described in Fabian et al., Nature Biotechnology 2005, 23, 329-336. […] The liganded beads were blocked with excess biotin and washed with blocking buffer (SeaBlock (Pierce), 1% BSA, 0.05% Tween 20, 1 mM DTT) to remove unbound ligand and to reduce non-specific binding. […] Test compounds were prepared as 100× stocks in DMSO and rapidly diluted into the aqueous environment. DMSO was added to control assays lacking a test compound. Primary screen interactions were performed in polypropylene 384-well plates in a final volume of 34 μt, while Kd determinations were performed in polystyrene 96-well plates in a final volume of 135 pt. […] The kinase concentration in the eluates was measured by quantitative PCR. Each kinase was tested individually against each compound. Kds were determined using eleven serial threefold dilutions. A selectivity score, which is a quantitative measure of selectivity of a compound against a panel of enzymes, may be calculated for a compound by dividing the number of enzymes for which a compound meets a set criteria, (for example, a binding constant of 100 nM or less), by the total number of enzymes tested. […] (Note, for those compounds tested in a larger kinase panel, as indicated by an asterisk (*) next to the S35 score, the divisor is 321 (i.e. the larger panel contains 321 distinct kinases, excluding mutant variants.)).

RAF kinases [2] = target: T1, RAF kinases (Homo sapiens, UniProt P15056, V600E); conditions: read-out: BRAF V600E Kd; BRAF V600E
[3] = tested on: MEK1 phosphorylation in the A375 human melanoma cell line; test: cells; conditions: A-375, read-out: pMEK IC50
RAF kinases [4] = target: T2, RAF kinases (Homo sapiens, UniProt P04049); test: biochemical
RAF kinases [5] = target: T3, RAF kinases (Homo sapiens, UniProt P15056); test: biochemical
A375 cells = test: cells; conditions: Homo sapiens, A-375, read-out: A375 Viability EC50
RAF kinases [6] = target: T2, RAF kinases; conditions: read-out: RAF1 Kd; RAF1
RAF kinases [7] = target: T3, RAF kinases; conditions: read-out: BRAF WT Kd; BRAF WT
RAF kinases [8] = target: T1, RAF kinases; test: biochemical
[9] = no asterisk: panel of 290 distinct kinases
[10] = asterisk: panel of 321 distinct kinases

T1 sequence (P15056 whole entry V600E): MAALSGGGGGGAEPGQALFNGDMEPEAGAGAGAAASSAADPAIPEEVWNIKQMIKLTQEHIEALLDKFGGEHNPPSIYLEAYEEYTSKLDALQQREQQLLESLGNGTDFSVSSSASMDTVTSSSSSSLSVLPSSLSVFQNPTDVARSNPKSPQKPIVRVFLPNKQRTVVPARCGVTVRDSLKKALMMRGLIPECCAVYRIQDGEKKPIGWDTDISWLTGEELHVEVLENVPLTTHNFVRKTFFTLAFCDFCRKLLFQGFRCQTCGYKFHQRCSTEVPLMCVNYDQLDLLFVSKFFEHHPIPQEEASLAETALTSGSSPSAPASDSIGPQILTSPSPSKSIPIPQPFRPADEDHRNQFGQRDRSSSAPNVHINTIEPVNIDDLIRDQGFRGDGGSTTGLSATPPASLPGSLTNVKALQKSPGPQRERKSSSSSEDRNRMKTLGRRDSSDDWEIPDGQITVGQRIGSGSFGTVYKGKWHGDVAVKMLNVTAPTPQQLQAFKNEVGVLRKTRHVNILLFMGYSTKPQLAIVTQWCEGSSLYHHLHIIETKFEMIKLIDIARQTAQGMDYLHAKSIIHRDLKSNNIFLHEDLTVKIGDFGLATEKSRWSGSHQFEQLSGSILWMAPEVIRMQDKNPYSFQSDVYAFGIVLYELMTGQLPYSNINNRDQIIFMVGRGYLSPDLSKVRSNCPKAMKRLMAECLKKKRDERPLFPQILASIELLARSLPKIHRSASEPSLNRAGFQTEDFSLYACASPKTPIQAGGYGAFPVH
T2 sequence (P04049 whole entry): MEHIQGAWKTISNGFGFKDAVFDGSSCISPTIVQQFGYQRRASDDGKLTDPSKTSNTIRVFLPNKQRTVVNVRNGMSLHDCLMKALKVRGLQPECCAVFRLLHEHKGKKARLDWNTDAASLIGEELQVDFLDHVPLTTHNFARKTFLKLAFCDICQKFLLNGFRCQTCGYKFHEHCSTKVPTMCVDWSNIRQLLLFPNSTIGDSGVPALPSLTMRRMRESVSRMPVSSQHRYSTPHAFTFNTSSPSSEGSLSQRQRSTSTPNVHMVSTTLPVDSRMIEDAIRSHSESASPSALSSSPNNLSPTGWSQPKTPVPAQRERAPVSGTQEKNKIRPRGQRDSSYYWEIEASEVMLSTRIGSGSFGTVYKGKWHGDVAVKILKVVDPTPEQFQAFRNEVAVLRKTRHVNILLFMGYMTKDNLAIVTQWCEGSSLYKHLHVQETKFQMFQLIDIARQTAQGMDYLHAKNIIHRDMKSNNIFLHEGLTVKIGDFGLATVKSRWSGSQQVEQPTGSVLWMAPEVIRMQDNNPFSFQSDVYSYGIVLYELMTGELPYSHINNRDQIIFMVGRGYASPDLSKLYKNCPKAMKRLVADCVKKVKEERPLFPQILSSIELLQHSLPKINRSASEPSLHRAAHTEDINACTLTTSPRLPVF
T3 sequence (P15056 whole entry): as the sequence (P15056 whole entry V600E) above, with E600V counted along it

pKd (RAF kinases [6])	pKd (RAF kinases [7])	pKd (RAF kinases [8])	SMILES	S35 [1, 9]	pKd (RAF kinases [2])	pIC50 [3]	pKd (RAF kinases [4])	pKd (RAF kinases [5])	S35 [1, 10]	pEC50 (A375 cells)
–	–	–	COc1cc(OC2CCOCC2)c2c(Sc3cccc(NC(=O)Nc4cc(C(C)(C)C)on4)c3)ncnc2c1	C (0.20 < C ≦ 0.40)	–	–	–	–	–	–
–	–	–	COc1cc2ncnc(Oc3cccc(NC(=O)Nc4cc(C(C)(C)C)nn4-c4ccncc4)c3)c2cc1OC [Ex336, 1-(3-tert-butyl-1-(pyridin-4-yl)-1H-pyrazol-5-yl)-3-(3-(6,7-dimethoxyquinazolin-4-yloxy)phenyl)urea]	D (D > 0.40)	> 6.60	> 6.60	6.00 to 6.30	6.00 to 6.30	–	–
–	–	–	COc1cc2ncnc(Sc3cccc(NC(=O)Nc4cc(C(F)(F)F)n(-c5ccccc5)n4)c3)c2cc1OC [Ex 170, 1-[3-(6,7-dimethoxyquinazolin-4-ylthio)phenyl]-3-[1-phenyl-5-(trifluoromethyl)-1H-pyrazol-3-yl]urea]	–	–	6.30 to 6.60	–	–	B* (0.10 < B ≦ 0.20)	6.30 to 6.60
–	–	–	COc1cc2ncnc(Sc3cccc(NC(=O)Nc4cc(C(F)(F)F)n(C)n4)c3)c2cc1OC [Ex 194, 1-[3-(6,7-dimethoxyquinazolin-4-ylthio)phenyl]-3-[1-methyl-5-(trifluoromethyl)-1H-pyrazol-3-yl]urea]	–	–	6.30 to 6.60	–	–	C* (0.20 < C ≦ 0.40)	6.00 to 6.30
< 6.00	< 6.00	6.00 to 6.30	COCCOc1cc2ncnc(Sc3cccc(NC(=O)Nc4ccc(C(F)(F)F)c(F)c4)c3)c2cc1OC [Ex 231, 1-(3-fluoro-4-(trifluoromethyl)phenyl)-3-(3-(6-methoxy-7-(2-methoxyethoxy)quinazolin-4-ylthio)phenyl)urea]	–	–	< 6.00	–	–	–	< 6.00
< 6.00	< 6.00	6.00 to 6.30	COCCOc1cc2ncnc(Sc3cccc(NC(=O)Nc4ccc(C(F)(F)F)c(OC)c4)c3)c2cc1OC [Ex 233, 1-(3-methoxy-4-(trifluoromethyl)phenyl)-3-(3-(6-methoxy-7-(2-methoxyethoxy)quinazolin-4-ylthio)phenyl)urea]	–	–	< 6.00	–	–	–	< 6.00
< 6.00	< 6.00	6.00 to 6.30	CCOC(=O)Cn1nc(C(C)(C)C)cc1NC(=O)Nc1cccc(Sc2ncnc3cc(OCCOC)c(OC)cc23)c1 [Ex 237, ethyl 2-[3-tert-butyl-5-(3-{3-[6-methoxy-7-(2-methoxyethoxy)quinazolin-4-ylthio]phenyl}ureido)-1H-pyrazol-1-yl]acetate]	–	–	6.00 to 6.30	–	–	–	< 6.00
–	–	–	COc1cc2c(Sc3cccc(NC(=O)Nc4cc(C(C)(C)F)no4)c3)ncnc2cc1OCCN1CCOCC1 [Ex 248, 1-(3-(2-fluoropropan-2-yl)isoxazol-5-yl)-3-(3-(6-methoxy-7-(2-morpholinoethoxy)quinazolin-4-ylthio)phenyl)urea]	–	> 6.60	6.30 to 6.60	6.30 to 6.60	6.30 to 6.60	C* (0.20 < C ≦ 0.40)	< 6.00
< 6.00	< 6.00	6.30 to 6.60	COc1cc2ncnc(Oc3cc(NC(=O)Nc4cc(C(F)(F)F)nn4-c4ccccc4)c(F)cc3F)c2cc1OC [Ex 271, 1-(5-(6,7-dimethoxyquinazolin-4-yloxy)-2,4-difluorophenyl)-3-(1-phenyl-3-(trifluoromethyl)-1H-pyrazol-5-yl)urea]	–	–	> 6.60	–	–	–	6.30 to 6.60
< 6.00	< 6.00	6.00 to 6.30	COCCOc1cc2ncnc(Sc3cccc(NC(=O)Nc4cc(C(C)(C)C)nn4-c4ccc(C)cc4C)c3)c2cc1OC [Ex 283, 1-(3-tert-butyl-1-(2,4-dimethylphenyl)-1H-pyrazol-5-yl)-3-(3-(6-methoxy-7-(2-methoxyethoxy)quinazolin-4-ylthio)phenyl)urea]	–	–	> 6.60	–	–	–	< 6.00
< 6.00	< 6.00	6.30 to 6.60	COc1cc2ncnc(Oc3cccc(NC(=O)Nc4cc(C(C)(C)CN5CCOCC5)on4)c3)c2cc1OC [Ex 302, 1-(3-(6,7-dimethoxyquinazolin-4-yloxy)phenyl)-3-(5-(2-methyl-1-morpholinopropan-2-yl)isoxazol-3-yl)urea]	–	–	< 6.00	–	–	–	< 6.00
< 6.00	< 6.00	6.30 to 6.60	COc1cc2ncnc(Oc3cccc(NC(=O)Nc4cc(C(F)(F)C(F)(F)F)nn4-c4ccccc4)c3)c2cc1OC [Ex 304, 1-(3-(6,7-dimethoxyquinazolin-4-yloxy)phenyl)-3-(3-(perfluoroethyl)-1-phenyl-1H-pyrazol-5-yl)urea]	–	–	6.30 to 6.60	–	–	–	> 6.60
–	–	–	COc1cc2ncnc(Oc3cccc(NC(=O)Nc4cc(C(C)(C)C)nn4-c4cccnc4C)c3)c2cc1OC [Ex 305, 1-(3-tert-butyl-1-(2-methylpyridin-3-yl)-1H-pyrazol-5-yl)-3-(3-(6,7-dimethoxyquinazolin-4-yloxy)phenyl)urea]	D (D > 0.40)	> 6.60	> 6.60	6.30 to 6.60	6.00 to 6.30	–	> 6.60
–	–	–	COc1cc2ncnc(Oc3cccc(NC(=O)Nc4cc(C(C)(C)C#N)nn4-c4ccccc4)c3)c2cc1OC [Ex 308, 1-(3-(2-cyanopropan-2-yl)-1-phenyl-1H-pyrazol-5-yl)-3-(3-(6,7-dimethoxyquinazolin-4-yloxy)phenyl)urea]	D (D > 0.40)	> 6.60	> 6.60	6.30 to 6.60	6.30 to 6.60	–	6.30 to 6.60
–	–	–	COc1cc2ncnc(Oc3cccc(NC(=O)Nc4cc(C(C)(C)C)nn4-c4ccc(C)nc4)c3)c2cc1OC [Ex 312, 1-(3-tert-butyl-1-(6-methylpyridin-3-yl)-1H-pyrazol-5-yl)-3-(3-(6,7-dimethoxyquinazolin-4-yloxy)phenyl)urea]	D (D > 0.40)	> 6.60	> 6.60	6.30 to 6.60	6.00 to 6.30	–	> 6.60
–	–	–	COc1cc2ncnc(Oc3cccc(NC(=O)Nc4cc(C(C)(C)C)nn4-c4cc[nH]c(=O)c4)c3)c2cc1OC [Ex 313, 1-(3-tert-butyl-1-(2-oxo-1,2-dihydropyridin-4-yl)-1H-pyrazol-5-yl)-3-(3-(6,7-dimethoxyquinazolin-4-yloxy)phenyl)urea]	D (D > 0.40)	> 6.60	6.30 to 6.60	6.30 to 6.60	6.30 to 6.60	–	6.00 to 6.30
–	–	–	COc1cc2ncnc(Oc3cccc(NC(=O)Nc4cc(C(C)(C)C)nn4-c4cccnc4)c3)c2cc1OC [Ex 322, 1-(3-tert-butyl-1-(pyridin-3-yl)-1H-pyrazol-5-yl)-3-(3-(6,7-dimethoxyquinazolin-4-yloxy)phenyl)urea]	D (D > 0.40)	> 6.60	> 6.60	6.30 to 6.60	6.30 to 6.60	–	–
–	–	–	COc1cc2ncnc(Oc3cccc(NC(=O)Nc4cc(C(C)(C)C)nn4-c4cncc(F)c4)c3)c2cc1OC [Ex 326, 1-(3-tert-butyl-1-(5-fluoropyridin-3-yl)-1H-pyrazol-5-yl)-3-(3-(6,7-dimethoxyquinazolin-4-yloxy)phenyl)urea]	D (D > 0.40)	> 6.60	> 6.60	6.00 to 6.30	6.00 to 6.30	–	–
–	–	–	COc1cc2ncnc(Sc3cccc(NC(=O)Nc4cc(C(C)(C)C)nn4-c4cncc(F)c4)c3)c2cc1OC [Ex 327, 1-(3-tert-butyl-1-(5-fluoropyridin-3-yl)-1H-pyrazol-5-yl)-3-(3-(6,7-dimethoxyquinazolin-4-ylthio)phenyl)urea]	D (D > 0.40)	> 6.60	> 6.60	6.00 to 6.30	6.00 to 6.30	–	–
–	–	–	COc1cc2ncnc(Oc3cccc(NC(=O)Nc4cc(C(C)(C)C)nn4-c4ccc(C#N)cc4)c3)c2cc1OC [Ex 328, 1-(3-tert-butyl-1-(4-cyanophenyl)-1H-pyrazol-5-yl)-3-(3-(6,7-dimethoxyquinazolin-4-yloxy)phenyl)urea]	D (D > 0.40)	> 6.60	> 6.60	6.30 to 6.60	6.30 to 6.60	–	–
–	–	–	COc1cc2ncnc(Sc3cccc(NC(=O)Nc4cc(C(C)(C)C)nn4CC(C)C)c3)c2cc1OC [Ex 333, 1-(3-tert-butyl-1-isobutyl-1H-pyrazol-5-yl)-3-(3-(6,7-dimethoxyquinazolin-4-ylthio)phenyl)urea]	C (0.20 < C ≦ 0.40)	> 6.60	6.00 to 6.30	6.30 to 6.60	6.30 to 6.60	–	–
–	–	–	COc1cc2ncnc(Sc3cccc(NC(=O)Nc4cc(C(C)(C)C)nn4-c4ccncc4)c3)c2cc1OC [Ex 337, 1-(3-tert-butyl-1-(pyridin-4-yl)-1H-pyrazol-5-yl)-3-(3-(6,7-dimethoxyquinazolin-4-ylthio)phenyl)urea]	D (D > 0.40)	> 6.60	> 6.60	6.00 to 6.30	6.00 to 6.30	–	–

SMILES	pKd (RAF kinases [6])	pKd (RAF kinases [7])	pKd (RAF kinases [8])	S35 [1, 9]	pKd (RAF kinases [2])	pIC50 [3]	pKd (RAF kinases [4])	pKd (RAF kinases [5])	S35 [1, 10]	pEC50 (A375 cells)
COc1cc2ncnc(Oc3ccc(Cl)c(NC(=O)Nc4cc(C(F)(F)F)nn4-c4ccccc4)c3)c2cc1OC [Ex 300, 1-(2-chloro-5-(6,7-dimethoxyquinazolin-4-yloxy)phenyl)-3-(1-phenyl-3-(trifluoromethyl)-1H-pyrazol-5-yl)urea]	< 6.00	< 6.00	6.00 to 6.30	–	–	6.30 to 6.60	–	–	–	< 6.00
